What follows are compounds tested against T1, recombinant human GR (Homo sapiens, UniProt P04150) (assay: Human Glucocorticoid Receptor (GR) Assay (fluorescence polarization, Panvera/Invitrogen kit)). Conditions: GS Red tracer, 2 hours at room temperature, 100% control 10 μM Dexamethasone, read-out: Inhibition of GR binding, IC50.
T1 construct: purchased Panvera/Invitrogen P2812 (kit P2893)
T1 sequence (P04150 1-777): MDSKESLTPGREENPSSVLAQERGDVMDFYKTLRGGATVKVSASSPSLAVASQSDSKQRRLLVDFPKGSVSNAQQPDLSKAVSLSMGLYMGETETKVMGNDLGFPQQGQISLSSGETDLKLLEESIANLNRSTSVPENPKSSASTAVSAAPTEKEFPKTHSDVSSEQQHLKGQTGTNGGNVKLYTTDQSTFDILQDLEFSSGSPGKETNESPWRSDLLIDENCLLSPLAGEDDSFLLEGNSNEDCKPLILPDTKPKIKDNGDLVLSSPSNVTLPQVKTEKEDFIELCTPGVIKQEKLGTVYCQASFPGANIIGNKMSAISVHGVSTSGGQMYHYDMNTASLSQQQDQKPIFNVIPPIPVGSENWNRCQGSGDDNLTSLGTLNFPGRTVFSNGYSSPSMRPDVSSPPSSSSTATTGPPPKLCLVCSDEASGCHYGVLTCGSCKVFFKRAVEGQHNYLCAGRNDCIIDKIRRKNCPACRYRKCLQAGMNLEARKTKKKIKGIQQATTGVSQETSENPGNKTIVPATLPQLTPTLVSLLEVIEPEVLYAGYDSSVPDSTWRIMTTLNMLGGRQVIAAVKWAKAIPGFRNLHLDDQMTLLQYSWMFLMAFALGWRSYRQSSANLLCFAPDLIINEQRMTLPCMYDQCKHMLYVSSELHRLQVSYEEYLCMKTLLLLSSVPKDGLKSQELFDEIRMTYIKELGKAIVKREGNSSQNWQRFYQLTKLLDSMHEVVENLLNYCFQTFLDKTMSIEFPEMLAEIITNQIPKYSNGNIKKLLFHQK
Experimental: Human Glucocorticoid Receptor (GR) Assay The assay is based on a commercial kit from Panvera/Invitrogen (Part number P2893). The assay technology is fluorescence polarization. The kit utilises recombinant human GR (Panvera, Part number P2812), a Fluoromone™ labelled tracer (GS Red, Panvera, Part number P2894) and a Stabilizing Peptide 10× (Panvera, Part number P2815). The GR and Stabilizing Peptide reagents are stored at −70° C. while the GS Red is stored at −20° C. Also included in the kit are 1M DTT (Panvera, Part number P2325, stored at −20° C.) and GR Screening buffer 10× (Panvera, Part number P2814, stored at −70° C. initially but once thawed stored at room temperature). Avoid repeated freeze/thaws for all reagents. The GR Screening buffer 10× comprises 100 mM potassium phosphate, 200 mM sodium molybdate, 1 mM EDTA and 20% DMSO. Test compounds (1 μL) and controls (1 μL) in 100% DMSO were added to black polystyrene 384-well plates (Greiner low volume black flat-bottom, part number 784076). 0% control was 100% DMSO and 100% control was 10 μM Dexamethasone. Background solution (8 μL; assay buffer 10×, Stabilizing Peptide, DTT and ice cold MQ water) was added to the background wells. GS Red solution (7 μL; assay buffer 10×, Stabilizing Peptide, DTT, GS Red and ice cold water) was added to all wells except background wells. GR solution (7 μL; assay buffer 10×, Stabilizing Peptide, DTT, GR and ice cold water) was added to all wells. The plate was sealed and incubated in a dark at room temperature for 2 hours. The plate was read in an Analyst plate reader (LJL Biosystems/Molecular Devices Corporation) or other similar plate reader capable of recording fluorescence polarization (excitation wavelength 530 nm, emission wavelength 590 nm and a dichroic mirror at 561 nm).

Row | SMILES | IC50
1 | COc1ccc([C@H]2O[C@@H]3C[C@H]4[C@@H]5CCC6=CC(=O)C=C[C@]6(C)[C@H]5[C@@H](O)C[C@]4(C)[C@]3(C(=O)SC)O2)c(F)c1 (single isomer, unassigned) [Example 38 (8S)] | 0.88 nM
2 | C[C@]12C=CC(=O)C=C1[C@@H](F)C[C@H]1[C@@H]3C[C@H]4OC(c5ccco5)O[C@@]4(C(=O)SCC#N)[C@@]3(C)C[C@H](O)[C@@]12F (stereo partly shown) [Example 1] | 1.2 nM
3 | C[C@]12C=CC(=O)C=C1[C@@H](F)C[C@H]1[C@@H]3C[C@H]4OC(c5ccco5)O[C@@]4(C(=O)SCC#CCO)[C@@]3(C)C[C@H](O)[C@@]12F (stereo partly shown) [Example 2] | 1.2 nM
4 | C[C@]12C=CC(=O)C=C1[C@@H](F)C[C@H]1[C@@H]3C[C@H]4OC(c5ccco5)O[C@@]4(C(=O)SCF)[C@@]3(C)C[C@H](O)[C@@]12F (stereo partly shown) [Example 3] | 0.92 nM
5 | CSC(=O)[C@@]12O[C@@H](c3cccs3)O[C@@H]1C[C@H]1[C@@H]3C[C@H](F)C4=CC(=O)C=C[C@]4(C)[C@@]3(F)[C@@H](O)C[C@@]12C [Example 4, S-Methyl (4aS,4bR,5S,6aS,6bS,8S,9aR,10aS,10bS,12S)-4b,12-difluoro-5-hydroxy-4a,6a-dimethyl-2-oxo-8-(2-thienyl)-2,4a,4b,5,6,6a,9a,10,10a,10,11,12-dodecahydro-6bH-naphtho[2′,1′:4,5]indeno[1,2-d][1,3]dioxole-6b-carbothioate] | 0.96 nM
6 | CSC(=O)[C@@]12OC(c3ccc(F)cc3F)O[C@@H]1C[C@H]1[C@@H]3C[C@H](F)C4=CC(=O)C=C[C@]4(C)[C@@]3(F)[C@@H](O)C[C@@]12C (stereo partly drawn) [Example 5, S-Methyl (4aS,4bR,5S,6aS,6bS,9aR,10aS,10bS,12S)-8-(2,4-difluorophenyl)-4b,12-difluoro-5-hydroxy-4a,6a-dimethyl-2-oxo-2,4a,4b,5,6,6a,9a,10,10a,10b,11,12-dodecahydro-6bH-naphtho[2′,1′:4,5]indeno[1,2-d][1,3]dioxole-6b-carbothioate] | 1.1 nM
7 | C[C@]12C=CC(=O)C=C1[C@@H](F)C[C@H]1[C@@H]3C[C@H]4OC(c5ccc(F)cc5F)O[C@@]4(C(=O)SCF)[C@@]3(C)C[C@H](O)[C@@]12F (stereo partly drawn) [Example 6, S-(Fluoromethyl)(4aS,4bR,5S,6aS,6bS,9aR,10aS,10bS,12S)-8-(2,4-difluorophenyl)-4b,12-difluoro-5-hydroxy-4a,6a-dimethyl-2-oxo-2,4a,4b,5,6,6a,9a,10,10a,10b,11,12-dodecahydro-6bH-naphtho[2′,1′:4,5]indeno[1,2-d][1,3]dioxole-6b-carbothioate] | 1.2 nM
8 | Cc1ccc([C@H]2O[C@@H]3C[C@H]4[C@@H]5C[C@H](F)C6=CC(=O)C=C[C@]6(C)[C@@]5(F)[C@@H](O)C[C@]4(C)[C@]3(C(=O)SCF)O2)o1 [Example 7, S-(Fluoromethyl)(4aS,4bR,5S,6aS,6bS,8S,9aR,10aS,10bS,12S)-4b,12-difluoro-5-hydroxy-4a,6a-dimethyl-8-(5-methyl-2-furyl)-2-oxo-2,4a,4b,5,6,6a,9a,10,10a,10b,11,12-dodecahydro-6bH-naphtho[2′,1′:4,5]indeno[1,2-d][1,3]dioxole-6b-carbothioate] | 1 nM
9 | CSC(=O)[C@@]12OC(c3ccc(C)o3)O[C@@H]1C[C@H]1[C@@H]3C[C@H](F)C4=CC(=O)C=C[C@]4(C)[C@@]3(F)[C@@H](O)C[C@@]12C (stereo partly drawn) [Example 8, S-Methyl (4aS,4bR,5S,6aS,6bS,9aR,10aS,10bS,12S)-4b,12-difluoro-5-hydroxy-4a,6a-dimethyl-8-(5-methyl-2-furyl)-2-oxo-2,4a,4b,5,6,6a,9a,10,10a,10b,11,12-dodecahydro-6bH-naphtho[2′,1′:4,5]indeno[1,2-d][1,3]dioxole-6b-carbothioate] | 1.9 nM
10 | C[C@]12C=CC(=O)C=C1[C@@H](F)C[C@H]1[C@@H]3C[C@H]4OC(c5cccs5)O[C@@]4(C(=O)SCC#N)[C@@]3(C)C[C@H](O)[C@@]12F (stereo partly drawn) [Example 9, S-(Cyanomethyl)(4aS,4bR,5S,6aS,6bS,9aR,10aS,10bS,12S)-4b,12-difluoro-5-hydroxy-4a,6a-dimethyl-2-oxo-8-(2-thienyl)-2,4a,4b,5,6,6a,9a,10,10a,10b,11,12-dodecahydro-6bH-naphtho[2′,1′:4,5]indeno[1,2-d][1,3]dioxole-6b-carbothioate] | 0.57 nM
11 | Cc1ccc(C2O[C@@H]3C[C@H]4[C@@H]5C[C@H](F)C6=CC(=O)C=C[C@]6(C)[C@@]5(F)[C@@H](O)C[C@]4(C)[C@]3(C(=O)SCC#N)O2)o1 (stereo partly drawn) [Example 10, S-(Cyanomethyl)(4aS,4bR,5S,6aS,6bS,9aR,10aS,10bS,12S)-4b,12-difluoro-5-hydroxy-4a,6a-dimethyl-8-(5-methyl-2-furyl)-2-oxo-2,4a,4b,5,6,6a,9a,10,10a,10b,11,12-dodecahydro-6bH-naphtho[2′,1′:4,5]indeno[1,2-d][1,3]dioxole-6b-carbothioate] | 1.1 nM
12 | C[C@]12C=CC(=O)C=C1[C@@H](F)C[C@H]1[C@@H]3C[C@H]4OC(c5ccc(Cl)o5)O[C@@]4(C(=O)SCF)[C@@]3(C)C[C@H](O)[C@@]12F (stereo partly drawn) [Example 11, S-(Fluoromethyl)(4aS,4bR,5S,6aS,6bS,9aR,10aS,10bS,12S)-8-(5-chloro-2-furyl)-4b,12-difluoro-5-hydroxy-4a,6a-dimethyl-2-oxo-2,4a,4b,5,6,6a,9a,10,10a,10b,11,12-dodecahydro-6bH-naphtho[2′,1′:4,5]indeno[1,2-d][1,3]dioxole-6b-carbothioate] | 0.59 nM
13 | C[C@]12C=CC(=O)C=C1[C@@H](F)C[C@H]1[C@@H]3C[C@H]4OC(c5cc6ccccc6o5)O[C@@]4(C(=O)SCF)[C@@]3(C)C[C@H](O)[C@@]12F (stereo partly drawn) [Example 12, S-(Fluoromethyl)(4aS,4bR,5S,6aS,6bS,9aR,10aS,10bS,12S)-8-(1-benzofuran-2-yl)-4b,12-difluoro-5-hydroxy-4a,6a-dimethyl-2-oxo-2,4a,4b,5,6,6a,9a,10,10a,10b,11,12-dodecahydro-6bH-naphtho[2′,1′:4,5]indeno[1,2-d][1,3]dioxole-6b-carbothioate] | 0.86 nM
14 | Cc1ccsc1C1O[C@@H]2C[C@H]3[C@@H]4C[C@H](F)C5=CC(=O)C=C[C@]5(C)[C@@]4(F)[C@@H](O)C[C@]3(C)[C@]2(C(=O)SCF)O1 (stereo partly drawn) [Example 13, S-(Fluoromethyl)(4aS,4bR,5S,6aS,6bS,9aR,10aS,10bS,12S)-4b,12-difluoro-5-hydroxy-4a,6a-dimethyl-8-(3-methyl-2-thienyl)-2-oxo-2,4a,4b,5,6,6a,9a,10,10a,10b,11,12-dodecahydro-6bH-naphtho[2′,1′:4,5]indeno[1,2-d][1,3]dioxole-6b-carbothioate] | 0.55 nM
15 | C[C@]12C=CC(=O)C=C1[C@@H](F)C[C@H]1[C@@H]3C[C@H]4OC(c5ccc(C(F)(F)F)o5)O[C@@]4(C(=O)SCF)[C@@]3(C)C[C@H](O)[C@@]12F (stereo partly drawn) [Example 14, S-(Fluoromethyl)(4aS,4bR,5S,6aS,6bS,9aR,10aS,10bS,12S)-4b,12-difluoro-5-hydroxy-4a,6a-dimethyl-2-oxo-8-[5-(trifluoromethyl)-2-furyl]-2,4a,4b,5,6,6a,9a,10,10a,10b,11,12-dodecahydro-6bH-naphtho[2′,1′:4,5]indeno[1,2-d][1,3]dioxole-6b-carbothioate] | 1.2 nM
16 | C[C@]12C=CC(=O)C=C1[C@@H](F)C[C@H]1[C@@H]3C[C@H]4OC(c5cccs5)O[C@@]4(C(=O)SCF)[C@@]3(C)C[C@H](O)[C@@]12F (stereo partly drawn) [Example 15, S-(Fluoromethyl)(4aS,4bR,5S,6aS,6bS,9aR,10aS,10bS,12S)-4b,12-difluoro-5-hydroxy-4a,6a-dimethyl-2-oxo-8-(2-thienyl)-2,4a,4b,5,6,6a,9a,10,10a,10b,11,12-dodecahydro-6bH-naphtho[2′,1′:4,5]indeno[1,2-d][1,3]dioxole-6b-carbothioate] | 1 nM

— US20110294766A1, “16 Alpha, 17 Alpha-Acetal Glucocorticosteroidal Derivatives and their Use” (AstraZeneca AB, priority 2008, published 2011)
